The values that follow come from US20020035111A1, “Method of inhibiting neoplastic cells with tetracyclic pyrido[3,4-B] indole derivatives” (priority 1998, published 2002).

By melting point is commonly meant the temperature of the solid-liquid transition. On to `CN1CC(=O)N2[C@@H](c3ccc(Br)s3)c3[nH]c4ccccc4c3C[C@@H]2C1=O` (relative stereo) [Example 52, Cis-2,3,6,7,12,12a-Hexahydro-6-(5-Bromo-2-Thienyl)-2-Methylpyrazino(2′,1′:6,1)Pyrido(3,4-b)Indole-1,4-Dione], for which the melting point was determined as 258 °C. The same measure for `O=C1[C@H]2Cc3c([nH]c4ccccc34)[C@@H](c3ccc4c(c3)CCC4)N2C(=O)CN1CC1CC1` [Example 94, (6R,12aR)-2,3,6,7,12,12a-Hexahydro-6-(5-Indanyl)-2-Cyclopropylmethylpyrazino(2′,1′:6,1)Pyrido(3,4-b)Indole-1,4-Dione]: 176 °C; for `O=C1[C@H]2Cc3c([nH]c4ccccc34)[C@H](c3ccc4c(c3)OCO4)N2C(=O)CN1Cc1cccnc1` (relative stereo) [Example 11, Cis-2,3,6,7,12,12a-Hexahydro-2-(3-Pyridylmethyl)-6-(3,4-Methylenedioxyphenyl)-Pyrazino(2′,1′:6,1)Pyrido(3,4-b)Indole-1,4-Dione]: 292 to 293 °C; for `O=C1[C@H]2Cc3c([nH]c4ccccc34)[C@@H](c3ccc4c(c3)OCO4)N2C(=O)CN1Cc1ccco1` [Example 105, (6R,12aR)-2,3,6,7,12,12a-Hexahydro-2-Furfuryl-6-(3,4-Methylenedioxyphenyl)-Pyrazino(2′,1′:6,1)Pyrido(3,4-b)Indole-1,4-Dione]: 219 °C. Compound `O=C1[C@H]2Cc3c([nH]c4ccccc34)[C@H](c3ccc4c(c3)CCO4)N2C(=O)CN1CC1CC1` (relative stereo) [Example 37, Cis-2,3,6,7,12,12a-Hexahydro-6-(2,3-Dihydrobenzo(b)Furan-5-yl)-2-Cyclopropylmethyl-Pyrazino(2′,1′:6,1)Pyrido(3,4-b)Indole-1,4-Dione] showed a melting point of 165 to 166 °C.

The compound `COc1ccc(CCN2CC(=O)N3[C@H](c4ccc5c(c4)OCO5)c4[nH]c5ccccc5c4C[C@@H]3C2=O)cc1OC` [Example 104, (6R,12aR)-2,3,6,7,12,12a-Hexahydro-2-(3,4-Dimethoxyphenethyl)-6-(3,4-Methylenedioxyphenyl)-Pyrazino(2′,1′:6,1)Pyrido(3,4-b)Indole-1,4-Dione] gave a melting point of 265 to 266 °C.

Take `CC(C)c1ccc([C@H]2c3[nH]c4ccccc4c3C[C@@H]3C(=O)N(C)CC(=O)N23)cc1` (relative stereo) [Example 74, Cis-2,3,6,7,12,12a-Hexahydro-6-(4-Isopropylphenyl)-2-Methylpyrazino(2′,1′:6,1)Pyrido(3,4-b)Indole-1,4-Dione]: the melting point amounted to 244 °C. The same measure for `CN1CC(=O)N2[C@@H](c3ccc4c(c3)CCCC4)c3[nH]c4ccccc4c3C[C@@H]2C1=O` (relative stereo) [Example 47, Cis-2,3,6,7,12,12a-Hexahydro-2-Methyl-6-(1,2,3,4-Tetrahydro-6-Naphthyl)Pyrazino(2′,1′:6,1)Pyrido(3,4-b)Indole-1,4-Dione]: 260 °C; for `CC(C)N1CC(=O)N2[C@@H](c3ccc4c(c3)OCO4)c3[nH]c4ccccc4c3C[C@@H]2C1=O` (relative stereo) [Example 16, Cis-2,3,6,7,12,12a-Hexahydro-2-Isopropyl-6-(3,4-Methylenedioxyphenyl) Pyrazino(2′,1′:6,1)Pyrido(3,4-b)Indole-1,4-Dione]: 248 to 250 °C; for `O=C1[C@H]2Cc3c([nH]c4ccccc34)[C@H](c3ccc4c(c3)OCO4)N2C(=O)CN1CC(F)(F)F` (relative stereo) [Example 14, Cis-2,3,6,7,12,12a-Hexahydro-2-(2,2,2-Trifluoroethyl)-6-(3,4-Methylenedioxyphenyl)-Pyrazino(2′,1′:6,1)Pyrido(3,4-b)Indole-1,4-Dione]: 303 °C. The result for `Cc1ccc([C@H]2c3[nH]c4ccccc4c3C[C@@H]3C(=O)N(C)CC(=O)N23)o1` (relative stereo) [Example 60, Cis-2,3,6,7,12,12a-Hexahydro-2-Methyl-6-(5-Methyl-2-Furyl)-Pyrazino(2′,1′:6,1)Pyrido(3,4-b)Indole-1,4-Dione] reads 303 °C; that for `CN1CC(=O)N2[C@H](c3ccc4c(c3)CCN4)c3[nH]c4ccccc4c3C[C@@H]2C1=O` [Example 111, (6R,12aR)-2,3,6,7,12,12a-Hexahydro-6-(5-Indolinyl)-2-Methyl-Pyrazino(2′,1′:6,1)Pyrido(3,4-b)Indole-1,4-Dione], 240 °C. The result for `CN1CC(=O)N2[C@H](c3ccc(O)c(O)c3)c3[nH]c4ccccc4c3C[C@@H]2C1=O` [Example 118, (6R, 12aR)-2,3,6,7,12,12a-Hexahydro-6-(3,4-Dihydroxyphenyl)-2-Methylpyrazino(2′,1′:6,1)Pyrido(3,4-b)Indole-1,4-Dione] reads 224 to 226 °C. As for `COc1ccc([C@@H]2c3[nH]c4ccccc4c3C[C@@H]3C(=O)N(C4CCCC4)CC(=O)N23)cc1` [Example 86, (6R,12aR)-2,3,6,7,12,12a-Hexahydro-2-Cyclopentyl-6-(4-Methoxyphenyl)-Pyrazino(2′,1′:6,1)Pyrido(3,4-b)Indole-1,4-Dione], the melting point fell in the range of 210 to 211 °C. The same measure for `CCCCN1CC(=O)N2[C@@H](c3ccccc3Cl)c3[nH]c4ccccc4c3C[C@@H]2C1=O` (relative stereo) [Example 40, Cis-2,3,6,7,12,12a-Hexahydro-2-Butyl-6-(2-Chlorophenyl) Pyrazino(2′,1′:6,1)Pyrido(3,4-b)Indole-1,4-Dione]: 146 °C; for `CC(C)N1CC(=O)N2[C@@H](c3ccc4c(c3)CCCC4)c3[nH]c4ccccc4c3C[C@@H]2C1=O` (relative stereo) [Example 48, Cis-2,3,6,7,12,12a-Hexahydro-2-Isopropyl-6-(1,2,3,4-Tetrahydro-6-Naphthyl)Pyrazino(2′,1′:6,1)Pyrido(3,4-b)Indole-1,4-Dione]: 244 to 246 °C; for `C[C@@H]1NC(=O)[C@H]2Cc3c([nH]c4ccccc34)[C@@H](c3ccc4occc4c3)N2C1=O` [Example 123, (3S, 6R, 12aR)-2,3,6,7, 12, 12a-Hexahydro-6-(5-Benzofuranyl)-3-Methyl-Pyrazino[2′,1′:6,1]Pyrido [3,4-b]Indole-1,4-Dione]: 150 to 151 °C. `CCCCN1CC(=O)N2[C@H](c3ccc(OC)cc3)c3[nH]c4ccccc4c3C[C@@H]2C1=O` [Example 85, (6R,12aR)-2,3,6,7,12,12a-Hexahydro-2-Butyl-6-(4-Methoxyphenyl)-Pyrazino(2′,1′:6,1)Pyrido(3,4-b)Indole-1,4-Dione] displayed a melting point of 183 to 184 °C.

Turning to `COc1ccc([C@H]2c3[nH]c4ccc(F)cc4c3C[C@@H]3C(=O)N(CC(F)(F)F)CC(=O)N23)cc1` (relative stereo) [Example 5, Cis-2,3,6,7,12,12a-Hexahydro-10-Fluoro-6-(4-Methoxyphenyl)-2-(2,2,2-Trifluoroethyl)-Pyrazino(2′,1′:6,1)Pyrido(3,4-b)Indole-1,4-Dione], the melting point worked out at 190 °C. With `CC(C)N1CC(=O)N2[C@H](c3ccc4occc4c3)c3[nH]c4ccccc4c3C[C@@H]2C1=O` [Example 122, (6R, 12aR)-2,3,6,7, 12, 12a-Hexahydro-6-(5-Benzofuranyl)-2-Isopropyl-Pyrazino [2′,1′:6,1]Pyrido [3,4-B]Indole-1,4-Dione], the melting point was in the range of 291 to 292 °C. `O=C1[C@H]2Cc3c([nH]c4ccccc34)[C@H](c3ccc4c(c3)OCO4)N2C(=O)CN1Cc1ccccc1` (relative stereo) [Example 23, Cis-2,3,6,7,12,12a-Hexahydro-2-Benzyl-6-(3,4-Methylenedioxyphenyl)Pyrazino(2′,1′:6,1)Pyrido(3,4-b)Indole-1,4-Dione] registered a melting point of 285 to 287 °C.

For `Cc1ccc([C@H]2c3[nH]c4ccccc4c3C[C@@H]3C(=O)N(C)CC(=O)N23)s1` (relative stereo) [Example 56, Cis-2,3,6,7,12,12a-Hexahydro-2-Methyl-6-(5-Methyl-2-Thienyl)Pyrazino(2′,1′:6,1)Pyrido(3,4-b)Indole-1,4-Dione], the melting point turned out to be 282 °C. The same measure for `CN1CC(=O)N2[C@H](c3ccc4occc4c3)c3[nH]c4ccccc4c3C[C@@H]2C1=O` [Example 120, (6R, 12aR)-2,3,6,7, 12, 12a-Hexahydro-6-(5-Benzofuranyl)-2-Methyl-Pyrazino[2′,1′:6,1]Pyrido[3,4-b]Indole-1,4-Dione]: 291 to 293 °C.

With `CCCCN1CC(=O)N2[C@@H](c3ccsc3)c3[nH]c4ccccc4c3C[C@@H]2C1=O` (relative stereo) [Example 58, Cis-2,3,6,7,12,12a-Hexahydro-2-Butyl-6-(3-Thienyl)-Pyrazino(2′,1′:6,1)Pyrido(3,4-b)Indole-1,4-Dione], the melting point was 236 to 239 °C. The same measure for `COc1ccc([C@H]2c3[nH]c4ccccc4c3C[C@@H]3C(=O)N(Cc4ccccc4)CC(=O)N23)cc1` (relative stereo) [Example 32, Cis-2,3,6,7,12,12a-Hexahydro-2-Benzyl-6-(4-Methoxyphenyl)Pyrazino(2′,1′:6,1)Pyrido(3,4-b)Indole-1,4-Dione]: 275 to 279 °C.

`CCCCN1CC(=O)N2[C@@H](c3ccc(C)cc3)c3[nH]c4ccccc4c3C[C@@H]2C1=O` (relative stereo) [Example 63, Cis-2,3,6,7,12,12a-Hexahydro-2-Butyl-6-(4-Methylphenyl)-Pyrazino(2′,1′:6,1)Pyrido(3,4-b)Indole-1,4-Dione]: the melting point was 194 °C. The result for `CN1CC(=O)N2[C@@H](c3cc(Br)cs3)c3[nH]c4ccccc4c3C[C@@H]2C1=O` (relative stereo) [Example 53, Cis-2,3,6,7,12,12a-Hexahydro-6-(4-Bromo-2-Thienyl)-2-Methylpyrazino(2′,1′:6,1)Pyrido(3,4-b)Indole-1,4-Dione] reads 292 °C; that for `COc1ccc([C@H]2c3[nH]c4ccccc4c3C[C@@H]3C(=O)N(CC(F)(F)F)CC(=O)N23)cc1` (relative stereo) [Example 28, Cis-2,3,6,7,12,12a-Hexahydro-6-(4-Methoxyphenyl)-2-(2,2,2-Trifluoroethyl)Pyrazino(2′,1′:6,1)Pyrido(3,4-b)Indole-1,4-Dione], 232 °C.
